Data published in US11717508B2, “Compounds, compositions, and methods for inhibiting bacterial growth” (priority 2016, dated 2023).
“And” between values parts separate entries of the source, which are not always exact repeats. Equal values may be shown once. Read-outs that look alike come from different tables or passages of the source.

Assays:
CDC1551(ΔdosR) mutant = format: cell-based; settings: for Counts per million (CPM) DosR_HC103A1 / Counts per million (CPM) DosR_HC103A2 / Counts per million (CPM): DosR mutant treated with HC103A; for Counts per million (CPM) DosR_HC103A1: replicate 1; for Counts per million (CPM) DosR_HC103A2: replicate 2; for DosR DMSO/DosR HC103A Fold change / log2 Fold change: DosR mutant; for Counts per million (CPM): replicates 1, 2
DosRST regulon = format: cell-based; settings: 40 μM, 6 days, >2-fold, p<0.05
[1] = gene MT1608 (Rv1557, mmpL6), HC103A compared to DMSO, upregulated
[2] = gene MT1690 Rv1652 argC, HC103A vs DMSO
[3] = gene MT1692 Rv1654 argB, HC103A vs DMSO
[4] = gene MT1694 Rv1656 argF, HC103A vs DMSO
[5] = gene MT2466, HC103A compared to DMSO, upregulated
[6] = gene MT2467, HC103A compared to DMSO, upregulated
[7] = gene MT3110 (Rv3026c), HC103A compared to DMSO, upregulated
[8] = gene MT3134 Rv3049c, HC103A vs DMSO
[9] = gene MT3249 (Rv3160c), HC103A compared to DMSO, upregulated
[10] = gene MT3250 (Rv3161c), HC103A compared to DMSO, upregulated
[11] = gene MT3591 (Rv3487c, lipF), HC103A compared to DMSO, upregulated
[12] = gene MT3933 (Rv3825c, pks2), HC103A compared to DMSO, upregulated

**Q.** What does the source list for `O=C(Nc1cccc(O)c1)c1cccc(NC(=O)c2cccs2)c1` [HC103A, N-[3-[(3 hydroxyphenyl)carbamoyl]phenyl]thiophene-2-carboxamide]?
**A.** Counts per million (CPM) DosR_HC103A1 (CDC1551(ΔdosR) mutant; gene MT1608 (Rv1557, mmpL6)): 351.7 CPM; Counts per million (CPM) DosR_HC103A2 (CDC1551(ΔdosR) mutant; gene MT1608 (Rv1557, mmpL6)): 540 CPM; DosR DMSO/DosR HC103A Fold change (CDC1551(ΔdosR) mutant; [1]): 6.869; log2 Fold change (CDC1551(ΔdosR) mutant; [1]): 2.78; Counts per million (CPM) (CDC1551(ΔdosR) mutant; gene MT1690 Rv1652 argC): 130.6 CPM and 56.84 CPM; DosR DMSO/DosR HC103A Fold change (CDC1551(ΔdosR) mutant; [2]): 0.4979; log2 Fold change (CDC1551(ΔdosR) mutant; [2]): −1.006; Counts per million (CPM) (CDC1551(ΔdosR) mutant; gene MT1691): 81.47 CPM and 33.33 CPM; DosR DMSO/DosR HC103A Fold change (CDC1551(ΔdosR) mutant; gene MT1691, HC103A vs DMSO): 0.4846; log2 Fold change (CDC1551(ΔdosR) mutant; gene MT1691, HC103A vs DMSO): −1.045; Counts per million (CPM) (CDC1551(ΔdosR) mutant; gene MT1692 Rv1654 argB): 128.8 CPM and 55.27 CPM; DosR DMSO/DosR HC103A Fold change (CDC1551(ΔdosR) mutant; [3]): 0.4965; log2 Fold change (CDC1551(ΔdosR) mutant; [3]): −1.01; Counts per million (CPM) (CDC1551(ΔdosR) mutant; gene MT1694 Rv1656 argF): 79.75 CPM and 39.53 CPM; DosR DMSO/DosR HC103A Fold change (CDC1551(ΔdosR) mutant; [4]): 0.4259; log2 Fold change (CDC1551(ΔdosR) mutant; [4]): −1.231; Counts per million (CPM) DosR_HC103A1 (CDC1551(ΔdosR) mutant; gene MT2466): 356.4 CPM; Counts per million (CPM) DosR_HC103A2 (CDC1551(ΔdosR) mutant; gene MT2466): 182.6 CPM; DosR DMSO/DosR HC103A Fold change (CDC1551(ΔdosR) mutant; [5]): 2.643; log2 Fold change (CDC1551(ΔdosR) mutant; [5]): 1.402; Counts per million (CPM) DosR_HC103A1 (CDC1551(ΔdosR) mutant; gene MT2467): 57.69 CPM; Counts per million (CPM) DosR_HC103A2 (CDC1551(ΔdosR) mutant; gene MT2467): 12.39 CPM; DosR DMSO/DosR HC103A Fold change (CDC1551(ΔdosR) mutant; [6]): 2.468; log2 Fold change (CDC1551(ΔdosR) mutant; [6]): 1.303; Counts per million (CPM) DosR_HC103A1 (CDC1551(ΔdosR) mutant; gene MT3110 (Rv3026c)): 44.13 CPM; Counts per million (CPM) DosR_HC103A2 (CDC1551(ΔdosR) mutant; gene MT3110 (Rv3026c)): 30.13 CPM; DosR DMSO/DosR HC103A Fold change (CDC1551(ΔdosR) mutant; [7]): 2.016; log2 Fold change (CDC1551(ΔdosR) mutant; [7]): 1.012; Counts per million (CPM) (CDC1551(ΔdosR) mutant; gene MT3134 Rv3049c): 1,202.50 CPM and 892.7 CPM; DosR DMSO/DosR HC103A Fold change (CDC1551(ΔdosR) mutant; [8]): 0.4226; log2 Fold change (CDC1551(ΔdosR) mutant; [8]): −1.243; Counts per million (CPM) DosR_HC103A1 (CDC1551(ΔdosR) mutant; gene MT3249 (Rv3160c)): 172.6 CPM; DosR DMSO/DosR HC103A Fold change (CDC1551(ΔdosR) mutant; [9]): 2.261; log2 Fold change (CDC1551(ΔdosR) mutant; [9]): 1.177; Counts per million (CPM) DosR_HC103A1 (CDC1551(ΔdosR) mutant; gene MT3250 (Rv3161c)): 561.8 CPM; Counts per million (CPM) DosR_HC103A2 (CDC1551(ΔdosR) mutant; gene MT3250 (Rv3161c)): 555 CPM; DosR DMSO/DosR HC103A Fold change (CDC1551(ΔdosR) mutant; [10]): 2.364; log2 Fold change (CDC1551(ΔdosR) mutant; [10]): 1.241; Counts per million (CPM) (CDC1551(ΔdosR) mutant; gene MT3573.12): 281 CPM and 281.6 CPM; DosR DMSO/DosR HC103A Fold change (CDC1551(ΔdosR) mutant; gene MT3573.12, HC103A vs DMSO): 0.4221; log2 Fold change (CDC1551(ΔdosR) mutant; gene MT3573.12, HC103A vs DMSO): −1.244; Counts per million (CPM) DosR_HC103A1 (CDC1551(ΔdosR) mutant; gene MT3591 (Rv3487c, lipF)): 185.8 CPM; Counts per million (CPM) DosR_HC103A2 (CDC1551(ΔdosR) mutant; gene MT3591 (Rv3487c, lipF)): 63.03 CPM; DosR DMSO/DosR HC103A Fold change (CDC1551(ΔdosR) mutant; [11]): 2.033; log2 Fold change (CDC1551(ΔdosR) mutant; [11]): 1.023; Counts per million (CPM) DosR_HC103A1 (CDC1551(ΔdosR) mutant; gene MT3933 (Rv3825c, pks2)): 917.6 CPM; Counts per million (CPM) DosR_HC103A2 (CDC1551(ΔdosR) mutant; gene MT3933 (Rv3825c, pks2)): 561 CPM; DosR DMSO/DosR HC103A Fold change (CDC1551(ΔdosR) mutant; [12]): 2.341; log2 Fold change (CDC1551(ΔdosR) mutant; [12]): 1.227; genes downregulated by compound that are also downregulated in the CDC1551(ΔdosR) mutant (DosRST regulon): 76 genes
